Measurements from ChEMBL document CHEMBL5335837, “Reinvestigation of diphenylmethylpiperazine analogues of pyrazine as new class of Plasmodial cysteine protease inhibitors for the treatment of malaria” (RSC Med Chem, 2024).
Active and inactive are the calls of the source. The calls are words filed in the database; no cut-off is given here.

Test system: not listed separately
Assay: Selectivity index, ratio of IC50 for cytotoxicity against african green monkey vero cells to IC50 for cytotoxicity against human A549 cells
Settings: not given

Row | Structure (SMILES) | Ratio IC50
1 | COc1cccc(C(c2ccc(C(F)(F)F)cc2)N2CCN(c3cnccn3)CC2)c1O (stereo not drawn) | 8.3
2 | Oc1ccccc1C(c1ccc(OC(F)(F)F)cc1)N1CCN(c2cnccn2)CC1 (stereo not drawn) | 10.89
3 | COc1ccc(C(c2ccccc2O)N2CCN(c3cnccn3)CC2)cc1 (stereo not drawn) | 1.95
4 | COc1cccc(C(c2ccc(F)c(F)c2)N2CCN(c3cnccn3)CC2)c1O (stereo not drawn) | 4.92
5 | Oc1ccccc1C(c1ccc(C(F)(F)F)cc1)N1CCN(c2cnccn2)CC1 (stereo not drawn) | 16.8

Target: T1, Falcipain-3 (Plasmodium falciparum 3D7, UniProt Q8IIL0)
T1 sequence (Q8IIL0 whole entry): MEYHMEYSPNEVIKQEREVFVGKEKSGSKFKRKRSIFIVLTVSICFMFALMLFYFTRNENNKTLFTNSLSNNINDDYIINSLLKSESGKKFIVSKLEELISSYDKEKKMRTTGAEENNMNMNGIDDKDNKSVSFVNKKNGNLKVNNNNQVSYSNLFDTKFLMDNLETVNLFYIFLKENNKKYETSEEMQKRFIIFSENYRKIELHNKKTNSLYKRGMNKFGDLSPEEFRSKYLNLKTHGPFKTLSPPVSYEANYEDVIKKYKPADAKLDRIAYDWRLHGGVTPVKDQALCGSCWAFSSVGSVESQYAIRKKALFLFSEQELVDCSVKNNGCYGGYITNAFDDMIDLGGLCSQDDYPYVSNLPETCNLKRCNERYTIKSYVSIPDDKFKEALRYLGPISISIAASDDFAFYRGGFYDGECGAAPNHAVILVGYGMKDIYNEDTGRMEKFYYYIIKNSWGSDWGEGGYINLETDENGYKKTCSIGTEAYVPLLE
Assay: Inhibition of Plasmodium falciparum FP3 using Z-Leu-Arg-AMC as substrate incubated for 30 mins by spectrofluorometry analysis
Settings: not given

Row | Structure (SMILES) | IC50
6 | COc1cccc(C(c2ccc(C(F)(F)F)cc2)N2CCN(c3cnccn3)CC2)c1O (stereo not drawn) | 6.8 µM
7 | Oc1ccccc1C(c1ccc(OC(F)(F)F)cc1)N1CCN(c2cnccn2)CC1 (stereo not drawn) | 6.4 µM
8 | COc1ccc(C(c2ccccc2O)N2CCN(c3cnccn3)CC2)cc1 (stereo not drawn) | 33.9 µM
9 | COc1cccc(C(c2ccc(F)c(F)c2)N2CCN(c3cnccn3)CC2)c1O (stereo not drawn) | 27.6 µM
10 | Oc1ccccc1C(c1ccc(C(F)(F)F)cc1)N1CCN(c2cnccn2)CC1 (stereo not drawn) | 9.6 µM

Test system: not listed separately
Assay: Selectivity index, ratio of IC50 for cytotoxicity against african green monkey vero cells to IC50 for antimalarial activity against Plasmodium falciparum 3D7
Format: toxicity, cell-based
Settings: read-out: Ratio IC50

Row | Structure (SMILES) | selectivity ratio
11 | COc1cccc(C(c2ccc(C(F)(F)F)cc2)N2CCN(c3cnccn3)CC2)c1O (stereo not drawn) | 328
12 | Oc1ccccc1C(c1ccc(OC(F)(F)F)cc1)N1CCN(c2cnccn2)CC1 (stereo not drawn) | 357
13 | COc1ccc(C(c2ccccc2O)N2CCN(c3cnccn3)CC2)cc1 (stereo not drawn) | 58.1
14 | COc1cccc(C(c2ccc(F)c(F)c2)N2CCN(c3cnccn3)CC2)c1O (stereo not drawn) | 74.1
15 | Oc1ccccc1C(c1ccc(C(F)(F)F)cc1)N1CCN(c2cnccn2)CC1 (stereo not drawn) | 562

Test system: Plasmodium falciparum
Assay: Antimalarial activity against Plasmodium falciparum W2 assessed as reduction in parasite growth incubated for 48 to 50 hrs by microplate reader analysis
Format: functional, organism-based
Settings: not given

Row | Structure (SMILES) | IC50
16 | COc1cccc(C(c2ccc(C(F)(F)F)cc2)N2CCN(c3cnccn3)CC2)c1O (stereo not drawn) | 4.35 µM
17 | Oc1ccccc1C(c1ccc(OC(F)(F)F)cc1)N1CCN(c2cnccn2)CC1 (stereo not drawn) | 3.39 µM
18 | COc1ccc(C(c2ccccc2O)N2CCN(c3cnccn3)CC2)cc1 (stereo not drawn) | 2.14 µM
19 | COc1cccc(C(c2ccc(F)c(F)c2)N2CCN(c3cnccn3)CC2)c1O (stereo not drawn) | 7.78 µM
20 | Oc1ccccc1C(c1ccc(C(F)(F)F)cc1)N1CCN(c2cnccn2)CC1 (stereo not drawn) | 31.4 µM

Test system: Plasmodium falciparum
Assay: Resistance index, ratio of IC50 for antimalarial activity against Plasmodium falciparum 3D7 to IC50 for antimalarial activity against Plasmodium falciparum W2
Format: functional
Settings: not given

Row | Structure (SMILES) | Ratio IC50
21 | COc1cccc(C(c2ccc(C(F)(F)F)cc2)N2CCN(c3cnccn3)CC2)c1O (stereo not drawn) | 0.7
22 | Oc1ccccc1C(c1ccc(OC(F)(F)F)cc1)N1CCN(c2cnccn2)CC1 (stereo not drawn) | 0.83
23 | COc1ccc(C(c2ccccc2O)N2CCN(c3cnccn3)CC2)cc1 (stereo not drawn) | 8.04
24 | COc1cccc(C(c2ccc(F)c(F)c2)N2CCN(c3cnccn3)CC2)c1O (stereo not drawn) | 1.73
25 | Oc1ccccc1C(c1ccc(C(F)(F)F)cc1)N1CCN(c2cnccn2)CC1 (stereo not drawn) | 0.06

Test system: Plasmodium falciparum
Assay: Antimalarial activity against Plasmodium falciparum 3D7 assessed as reduction in parasite growth incubated for 48 to 50 hrs by microplate reader analysis
Format: functional, organism-based
Settings: Plasmodium falciparum, 3D7; read-out: IC50

Row | Structure (SMILES) | IC50
26 | COc1cccc(C(c2ccc(C(F)(F)F)cc2)N2CCN(c3cnccn3)CC2)c1O (stereo not drawn) | 3.05 µM
27 | Oc1ccccc1C(c1ccc(OC(F)(F)F)cc1)N1CCN(c2cnccn2)CC1 (stereo not drawn) | 2.8 µM
28 | COc1ccc(C(c2ccccc2O)N2CCN(c3cnccn3)CC2)cc1 (stereo not drawn) | 17.2 µM
29 | COc1cccc(C(c2ccc(F)c(F)c2)N2CCN(c3cnccn3)CC2)c1O (stereo not drawn) | 13.5 µM
30 | Oc1ccccc1C(c1ccc(C(F)(F)F)cc1)N1CCN(c2cnccn2)CC1 (stereo not drawn) | 1.78 µM

Test system: A549
Assay: Anticancer activity against human A549 cells measured after 24 hrs by MTT assay
Format: functional, cell-based
Settings: A549, 24 h

Row | Structure (SMILES) | IC50
31 | COc1cccc(C(c2ccc(C(F)(F)F)cc2)N2CCN(c3cnccn3)CC2)c1O (stereo not drawn) | 120 µM
32 | Oc1ccccc1C(c1ccc(OC(F)(F)F)cc1)N1CCN(c2cnccn2)CC1 (stereo not drawn) | 91.8 µM
33 | COc1ccc(C(c2ccccc2O)N2CCN(c3cnccn3)CC2)cc1 (stereo not drawn) | 514 µM
34 | COc1cccc(C(c2ccc(F)c(F)c2)N2CCN(c3cnccn3)CC2)c1O (stereo not drawn) | 203 µM
35 | Oc1ccccc1C(c1ccc(C(F)(F)F)cc1)N1CCN(c2cnccn2)CC1 (stereo not drawn) | 59.5 µM

Test system: Erythrocyte
Assay: Hemolytic activity in human RBCs at 100 uM incubated for 2 hrs by microplate reader analysis
Format: toxicity, cell-based
Settings: not given

Row | Structure (SMILES) | Activity
36 | COc1cccc(C(c2ccc(C(F)(F)F)cc2)N2CCN(c3cnccn3)CC2)c1O (stereo not drawn) | Non-Toxic
37 | Oc1ccccc1C(c1ccc(OC(F)(F)F)cc1)N1CCN(c2cnccn2)CC1 (stereo not drawn) | Non-Toxic
38 | COc1ccc(C(c2ccccc2O)N2CCN(c3cnccn3)CC2)cc1 (stereo not drawn) | Non-Toxic
39 | COc1cccc(C(c2ccc(F)c(F)c2)N2CCN(c3cnccn3)CC2)c1O (stereo not drawn) | Non-Toxic
40 | Oc1ccccc1C(c1ccc(C(F)(F)F)cc1)N1CCN(c2cnccn2)CC1 (stereo not drawn) | Non-Toxic

Test system: Plasmodium falciparum
Assay: Antimalarial activity against Plasmodium falciparum 3D7 assessed as decrease in development of early trophozoite stage at 3 times IC50 incubated for 48 hrs by Geimsa staining based analysis
Format: functional, organism-based
Settings: not given

Row | Structure (SMILES) | Activity
41 | COc1cccc(C(c2ccc(C(F)(F)F)cc2)N2CCN(c3cnccn3)CC2)c1O (stereo not drawn) | Active
42 | Oc1ccccc1C(c1ccc(OC(F)(F)F)cc1)N1CCN(c2cnccn2)CC1 (stereo not drawn) | Active
43 | COc1ccc(C(c2ccccc2O)N2CCN(c3cnccn3)CC2)cc1 (stereo not drawn) | Active
44 | Oc1ccccc1C(c1ccc(C(F)(F)F)cc1)N1CCN(c2cnccn2)CC1 (stereo not drawn) | Active

Test system: not listed separately
Assay: Selectivity index, ratio of IC50 for cytotoxicity against human A549 cells to IC50 for antimalarial activity against Plasmodium falciparum 3D7
Format: toxicity, cell-based
Settings: read-out: Ratio IC50

Row | Structure (SMILES) | selectivity ratio
45 | COc1cccc(C(c2ccc(C(F)(F)F)cc2)N2CCN(c3cnccn3)CC2)c1O (stereo not drawn) | 39.5
46 | Oc1ccccc1C(c1ccc(OC(F)(F)F)cc1)N1CCN(c2cnccn2)CC1 (stereo not drawn) | 32.8
47 | COc1ccc(C(c2ccccc2O)N2CCN(c3cnccn3)CC2)cc1 (stereo not drawn) | 29.9
48 | COc1cccc(C(c2ccc(F)c(F)c2)N2CCN(c3cnccn3)CC2)c1O (stereo not drawn) | 15.1
49 | Oc1ccccc1C(c1ccc(C(F)(F)F)cc1)N1CCN(c2cnccn2)CC1 (stereo not drawn) | 33.4

Test system: not listed separately
Assay: Selectivity index, ratio of IC50 for cytotoxicity against human A549 cells to IC50 for antimalarial activity against Plasmodium falciparum W2
Format: toxicity, cell-based
Settings: read-out: Ratio IC50

Row | Structure (SMILES) | selectivity ratio
50 | COc1cccc(C(c2ccc(C(F)(F)F)cc2)N2CCN(c3cnccn3)CC2)c1O (stereo not drawn) | 27.7
51 | Oc1ccccc1C(c1ccc(OC(F)(F)F)cc1)N1CCN(c2cnccn2)CC1 (stereo not drawn) | 27.1
52 | COc1ccc(C(c2ccccc2O)N2CCN(c3cnccn3)CC2)cc1 (stereo not drawn) | 240
53 | COc1cccc(C(c2ccc(F)c(F)c2)N2CCN(c3cnccn3)CC2)c1O (stereo not drawn) | 26.1
54 | Oc1ccccc1C(c1ccc(C(F)(F)F)cc1)N1CCN(c2cnccn2)CC1 (stereo not drawn) | 1.89

Target: T2, Falcipain 2 (Plasmodium falciparum, UniProt Q9N6S8)
T2 sequence (Q9N6S8 whole entry): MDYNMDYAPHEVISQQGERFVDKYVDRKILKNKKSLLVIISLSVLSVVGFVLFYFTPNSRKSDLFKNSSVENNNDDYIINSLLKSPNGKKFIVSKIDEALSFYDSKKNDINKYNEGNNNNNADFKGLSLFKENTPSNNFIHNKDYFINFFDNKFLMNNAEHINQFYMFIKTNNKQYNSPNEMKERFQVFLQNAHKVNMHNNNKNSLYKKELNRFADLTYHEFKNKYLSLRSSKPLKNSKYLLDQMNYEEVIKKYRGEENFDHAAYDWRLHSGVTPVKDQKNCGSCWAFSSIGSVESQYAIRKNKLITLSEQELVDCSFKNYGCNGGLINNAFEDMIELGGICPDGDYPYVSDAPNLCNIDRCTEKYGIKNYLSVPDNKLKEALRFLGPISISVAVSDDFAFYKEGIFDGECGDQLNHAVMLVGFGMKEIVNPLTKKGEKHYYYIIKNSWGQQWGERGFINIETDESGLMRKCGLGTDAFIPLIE
Assay: Inhibition of Plasmodium falciparum FP2 using Z-Leu-Arg-AMC as substrate incubated for 30 mins by spectrofluorometry analysis
Settings: not given

Row | Structure (SMILES) | IC50
55 | COc1cccc(C(c2ccc(C(F)(F)F)cc2)N2CCN(c3cnccn3)CC2)c1O (stereo not drawn) | 6.2 µM
56 | Oc1ccccc1C(c1ccc(OC(F)(F)F)cc1)N1CCN(c2cnccn2)CC1 (stereo not drawn) | 5.9 µM
57 | COc1ccc(C(c2ccccc2O)N2CCN(c3cnccn3)CC2)cc1 (stereo not drawn) | 31.1 µM
58 | COc1cccc(C(c2ccc(F)c(F)c2)N2CCN(c3cnccn3)CC2)c1O (stereo not drawn) | 24.3 µM
59 | Oc1ccccc1C(c1ccc(C(F)(F)F)cc1)N1CCN(c2cnccn2)CC1 (stereo not drawn) | 8.5 µM

Test system: Vero
Assay: Cytotoxicity against african green monkey Vero cells upto 1000 uM measured after 72 hrs by MTT assay
Format: toxicity, cell-based
Settings: chlorocebus sabaeus

Row | Structure (SMILES) | Activity
60 | COc1cccc(C(c2ccc(C(F)(F)F)cc2)N2CCN(c3cnccn3)CC2)c1O (stereo not drawn) | Non-Toxic
61 | Oc1ccccc1C(c1ccc(OC(F)(F)F)cc1)N1CCN(c2cnccn2)CC1 (stereo not drawn) | Non-Toxic
62 | COc1ccc(C(c2ccccc2O)N2CCN(c3cnccn3)CC2)cc1 (stereo not drawn) | Non-Toxic
63 | COc1cccc(C(c2ccc(F)c(F)c2)N2CCN(c3cnccn3)CC2)c1O (stereo not drawn) | Non-Toxic
64 | Oc1ccccc1C(c1ccc(C(F)(F)F)cc1)N1CCN(c2cnccn2)CC1 (stereo not drawn) | Non-Toxic

Test system: Plasmodium falciparum
Assay: Antimalarial activity against Plasmodium falciparum 3D7 assessed as decrease in new ring formation at 3 times IC50 concentration incubated for 48 hrs by Geimsa staining based analysis
Format: functional, organism-based
Settings: not given

Row | Structure (SMILES) | Activity
65 | COc1cccc(C(c2ccc(C(F)(F)F)cc2)N2CCN(c3cnccn3)CC2)c1O (stereo not drawn) | Active
66 | Oc1ccccc1C(c1ccc(OC(F)(F)F)cc1)N1CCN(c2cnccn2)CC1 (stereo not drawn) | Active
67 | COc1ccc(C(c2ccccc2O)N2CCN(c3cnccn3)CC2)cc1 (stereo not drawn) | Active
68 | Oc1ccccc1C(c1ccc(C(F)(F)F)cc1)N1CCN(c2cnccn2)CC1 (stereo not drawn) | Active

Test system: not listed separately
Assay: Selectivity index, ratio of IC50 for cytotoxicity against african green monkey vero cells to IC50 for antimalarial activity against Plasmodium falciparum W2
Format: toxicity, cell-based
Settings: read-out: Ratio IC50

Row | Structure (SMILES) | selectivity ratio
69 | COc1cccc(C(c2ccc(C(F)(F)F)cc2)N2CCN(c3cnccn3)CC2)c1O (stereo not drawn) | 230
70 | Oc1ccccc1C(c1ccc(OC(F)(F)F)cc1)N1CCN(c2cnccn2)CC1 (stereo not drawn) | 295
71 | COc1ccc(C(c2ccccc2O)N2CCN(c3cnccn3)CC2)cc1 (stereo not drawn) | 467
72 | COc1cccc(C(c2ccc(F)c(F)c2)N2CCN(c3cnccn3)CC2)c1O (stereo not drawn) | 129
73 | Oc1ccccc1C(c1ccc(C(F)(F)F)cc1)N1CCN(c2cnccn2)CC1 (stereo not drawn) | 31.9
